Data taken from patent US4342751A (priority 1981, dated 1982).
Numbered stars: 1 amine (or outer) side, 2 acyl side, 3 side chain; on linkers, the order of the positions; unused ones are H or OH. Square brackets hold non-standard residues; d marks the D form. Peptide text beside a SMILES is read from it. X1 = CCC(N[*:1])C(C)C(=O)O[C@H](C(=O)[*:2])[C@@H](C)CC; X2 = C[C@H](N[*:1])C(=O)C(C)(C)C(=O)[*:2]; NMeY = CN[C@@H](Cc1ccc(O)cc1)C(=O)O; NMeI = CC[C@H](C)[C@H](NC)C(=O)O; NMeV = CN[C@H](C(=O)O)C(C)C

Columns and labels:
[1] = system: Grape leaves (C. V. Niagara); conditions: in vivo

Compound: CCC1NC(=O)[C@H](C)NC(=O)C(C)(C)C(=O)[C@H](C)NC(=O)[C@H](Cc2ccc(OC)cc2)N(C)C(=O)[C@H](C(C)C)N(C)C(=O)CNC(=O)[C@H]([C@@H](C)CC)N(C)C(=O)CNC(=O)[C@H]([C@@H](C)CC)OC(=O)C1C (stereo partly drawn) [Majusculamide C, majusculamide C] (cyclo(A[X1]G[NMeI]G[NMeV][NMeY](Me)[X2]))
- Phytotoxicity rating, grape leaves [1]: 0
- In vivo effectiveness against grape downy mildew (Plasmopora viticola): effective
- Control of fungus (Plasmopora viticola; in vivo): control
